Reference: patent US20030186946A1, “Suppression of cytotoxic protein conformers” (priority 2002, published 2003)
Read-outs that look alike come from different tables or passages of the source.

How the values were obtained:
human amylin [1] = biological target: T1, human amylin (Homo sapiens, UniProt P10997); assay: Circular dichroism assay of amylin conformation; assay type: biochemical; set-up: Amylin is a 37-residue; C-terminally amidated peptide having a disulfide bridge between the cysteines at residues 2 and 7; purchased Bachem Calif; (Torrance, Calif.); host or cells: chemical synthesis; settings: 200 μM Amaranth, approximately 4 μM human amylin, 4% HFIP (FIG. 9F)
T1 sequence (P10997 34-70 limits assumed): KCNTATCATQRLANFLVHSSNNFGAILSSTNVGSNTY
Protocol: Preparation of monomeric human amylin. Human amylin (batch 0551805) was obtained from Bachem (Torrence, Calif.). Stock solutions of amylin were prepared as described by Padrick and Miranker, 2002. Human amylin was solubilised in 6M guanidine HCL/50 mM potassium phosphate, pH 6.0, and loaded onto a C18 reversed-phase spin column (Harvard Biosciences). The column was then washed sequentially with 10% Acetonitrile, 0.2% trifluoroacetic acid and water. Monomeric amylin was eluted in 100% HFIP (hexafluoroisopropanol). This stock solution of amylin was then used for all Circular Dichroism experiments.
Circular Dichroism Assay. Circular dichroism spectra were measured on a Pi-Star 180 spectrometer (Applied Photophysics, Leatherhead, UK). Measurements were carried out in either 100% HFIP or 100 mM potassium chloride/50 mM potassium phosphate buffer (pH 7.4) and 2.5% HFIP at 25° C. A stock solution of monomeric human amylin was diluted into buffer to a final concentration of 2.5% HFIP and approximately 5 μM amylin to initiate amylin fibril formation. Spectra were collected at 1 nm intervals with a sample period of 25 μs and adaptive sampling of ±0.01 mdeg. Measurements were recorded immediately following addition of the human amylin stock solution to phosphate buffer in the presence or absence of Congo red or amaranth.
Human amylin (100 μg) was purified on a C18 spin column to give a stock solution in 100% HFIP as described in the methods. A spectrum of this stock solution was collected at 1 nm intervals in a 0.1 cm path length quartz cell (FIG. 9B). The stock solution of monomeric amylin in 100% HFIP was diluted to 2.5% HFIP in 100 mM potassium chloride/50 mM potassium phosphate buffer (pH 7.4). Human amylin concentration was approximately 5 μM. A spectrum was collected at 1 nm intervals in a 0.5 cm path length quartz cell in the absence (FIG. 9C) or presence of 20-fold molar excess of Congo red over human amylin (FIG. 9D). The stock solution of monomeric amylin in 100% HFIP was diluted to 4% HFIP in 100 mM potassium chloride/50 mM potassium phosphate buffer (pH 7.4) containing decreasing concentrations of Congo red as indicated in the Figure. Human amylin concentration was approximately 4 μM. Spectra were collected at 1 nm intervals in a 0.1 cm path length quartz cell (FIG. 9E). The stock solution of monomeric amylin in 100% HFIP was diluted to 4% HFIP in 100 mM potassium chloride/50 mM potassium phosphate buffer (pH 7.4) containing 200 μM Amaranth. Human amylin concentration was approximately 4 μM. Spectra were collected at 1 nm intervals in a 0.1 cm path length quartz cell (FIG. 9F).

human amylin [2] = biological target: T1, human amylin; settings: 10 μM thioflavin-T; for enhancement of thioflavin-T fluorescence by human amylin: 1200 μM compound (20-fold molar excess), 60 μM human amylin, over 24 h (FIG. 3)
Protocol: Thioflavin-T binding fluorescent assays. The effects of various polycyclic compounds on islet amyloid formation were measured by fluorescence spectroscopy, using a SpectraMAX Gemini XS Fluorescence Spectrophotometer (Molecular Devices Corporation, Sunnyvale, Calif.). Excitation and emission maxima were set to 450 nm and 510 nm respectively using a cutoff filter at 495 nm. Thioflavin-T binds to amylin fibrils, but not to monomeric amylin (Goldsbury et al., (1999), J. Mol. Biol., 285:33-39). […] The rate of amylin fibril formation was determined by following thioflavin-T fluorescence in the presence or absence of the potential inhibitory drug. […] Background fluorescence by acridine and acridine orange in the absence of amylin was subtracted from the experimental results. The control preparation contained human amylin and thioflavin-T in the absence of drug. The rate of fluorescence enhancement under these conditions was used to compare amylin fibril formation in the absence and presence of the drug. All other experimental conditions were identical.
Tri-prolyl amylin and rat amylin with thioflavin-T were also used as additional controls.
Each data point represents the mean±s.e.m of three separate reactions.
Effect of chlorpromazine on enhancement of thioflavin-Tfluorescence by human amylin (FIG. 2). Chlorpromazine (700 μM) (π) was incubated in 10 mM tris p H 7.4, with monomeric human amylin (70 μM) in the presence of thioflavin-T (10 μM). The fluorescence of the reaction was monitored over 24 hours as described in the methods. […] Each data point represents the mean±s.e.m of three separate reactions.
Effect of selected polycylic compounds on enhancement of thioflavin-Tfluorescence by human amylin (FIG. 3). Acridine, acridine orange, neutral red and methylene blue are selected examples of fused tricyclic ring compounds. […] Compound structures are shown adjacent to the appropriate graph. […] Fluorescence was monitored over 24 h as described in the Methods. A preparation containing human amylin and thioflavin-T only (▪), was included as a comparison in the absence of drug. […] Each data point represents the mean±s.e.m of three independent experiments.

human amylin [3] = biological target: T1, human amylin; assay: Radiolabelled precipitation assay of amylin fibril formation; assay type: biochemical; set-up: Amylin is a 37-residue; C-terminally amidated peptide having a disulfide bridge between the cysteines at residues 2 and 7; purchased Bachem Calif; (Torrance, Calif.); host or cells: chemical synthesis; settings: 200 μM compound, 10 μM human amylin, 16,000×g (FIG. 8)
Protocol: Radiolabelled Precipitation Assays. The precipitation of radiolabelled human and rat amylin fibrils was used as an independent method to monitor assembly of amylin fibrils in the presence or absence of potential inhibitors of amylin fibril formation. […] Incubation mixtures were then centrifuged at either 16,000×g or 100,000×g, for 20 min, and the amount of [^3H]-human amylin remaining in the supernatant after centrifugation was determined (Beckman LSW 3801 β-counter, USA). Results were expressed as percentages of precipitable counts per minute, relative to total radioactivity in the supernatant.
Incorporation of [^3H]-amylin into amylin fibrils was followed for 24 hours. Human amylin fibrils were precipitated by centrifugation at either 16,000×g (FIG. 7A) or at 100,000×g (FIG. 7B). Rat amylin (10 μM) in the presence of [^3H]-rat amylin was used as a non-fibril forming control (♦) (FIG. 7A). The results are shown as the percentage of precipitable radioactive amylin, relative to total radioactivity in the supernatant at each time point. Each data point represents the mean±s.e.m of three separate reactions.
The incorporation of radioactive monomeric amylin into the human amylin fibrils as they form, can be used to measure the rate at which amylin fibrils form in the presence or absence of a potential inhibitory drug. Amylin fibrils can be separated from solution by centrifugation and the amount of radioactive amylin precipitated in the amylin fibril pellet is then used as a measure of the amount of amylin fibrils present at that time.
Thioflavin-T, although not polycyclic, is widely used in fluorescent assays to measure amylin fibril formation. Incorporation of radioactivity into the pellet of an aliquot of the reaction mixture centrifuged at 16,000×g, for 20 minutes was monitored over the time periods indicated. Rat amylin (10 μM) with [^3H]-rat amylin added was used as a non fibril forming control (∘) in each experiment. The results are shown as the percentage of precipitable radioactive amyloid, relative to total radioactivity in the supernatant at each time point. Each data point represents the mean±s.e.m of three separate experiments.

human amylin [4] = biological target: T1, human amylin; assay: Electron microscopy of human amylin fibrils; assay type: biochemical; set-up: Amylin is a 37-residue; C-terminally amidated peptide having a disulfide bridge between the cysteines at residues 2 and 7; purchased Bachem Calif; (Torrance, Calif.); host or cells: chemical synthesis
Protocol: Electron Microscopy. […] Samples were removed at various time points and prepared for electron microscopy. Aliquots (8 μl) of the amylin fibril preparations were absorbed to glow-discharged carbon-coated collodion film on 200-mesh copper grids for 1 min. Grids were blotted, washed twice in droplets of deionised water and stained with 2% (w/v) uranyl acetate. Grids were examined in a Phillips Technai transmission electron microscope operated at 120 kV.
Samples were removed at various time points and prepared for electron microscopy according to the procedure described in the methods.
Electron Microscopy of human amylin fibrils in the presence and absence of quinacrine (FIG. 5). A 100 fold molar excess of quinacrine was incubated with human amylin. Samples were removed at various time points and prepared for electron microscopy according to the procedure described in the methods.
Electron Microscopy of human amylin fibrils in the presence and absence of selected polycyclic compounds (FIG. 6). […] Samples were removed and prepared for electron microscopy as described in the Methods. All experiments were performed in triplicate and the pictures above are representative of at least 6 photographs taken at each magnification.

RINm5F cells = assay: Cytotoxicity assay in RINm5F cells (calcein-AM / ethidium homodimer-1 staining); settings: 30 μM peptide, 22 h, compared to vehicle control
Protocol: Cell Culture and Cytotoxicity Assays. RINm5F cells were cultured in RPMI 1640 medium containing 10% fetal bovine serum, 290 μg/mL L-glutamine, 100 IU/mL penicillin and 100 μg/mL streptomycin. Cells were plated at a density of 15×1 cells per well, incubated for 48 h, rinsed with PBS and placed in fresh medium containing Congo red. Freshly prepared human amylin in Milli-Q water, was preincubated with Congo red for 30 min, then added to the cell culture medium to give a final concentration of 30 μM. Cells were treated for 22 h with human amylin in the presence or absence of 100 μM Congo red. Cell viability was determined by double-staining with calcein-AM and ethidium homodimer-1. Green fluorescence of live cells and red fluorescence marking nuclei of dead cells were simultaneously visualized using a Zeiss Axiovert S100 microscope equipped with a Zeiss filter set # 09. Photographs were taken at 400× magnification using a Zeiss AxioCam digital camera.
A. Representative fluorescence micrograph of RINm5F cells treated with 30 μM human amylin for 22 h and stained with calcein-AM and ethidium homodimer-1 to show live cells (green) and dead cells (red). […] B. A representative micrograph of RINm5F cells treated with 30 μM human amylin and 100 μM Congo red stained as above. […] The percentage of live cells was determined for cells treated for 22 h with vehicle; 30 μM human amylin; 30 μM human amylin in the presence of 100 μM Congo red; or 30 μM rat amylin. Experiments were repeated independently 10 times except for human amylin plus Congo red (A+CR) which was repeated five times. Error bars represent the s.e.m of live and dead cell counts over 6-12 fields per condition.

Compound: O=S(=O)([O-])c1ccc2c(N=Nc3ccc(S(=O)(=O)[O-])c4ccccc34)c(O)c(S(=O)(=O)[O-])cc2c1.[Na+].[Na+].[Na+] [Amaranth]
- effect on β-conformer formation of human amylin (circular dichroism) (human amylin [1]): prevents formation of β-conformers and instead arrests the amylin peptide in an α-helical conformation

Compound: c1ccc2nc3ccccc3cc2c1 [acridine]
- enhancement of thioflavin-T fluorescence by human amylin (human amylin [2]): moderate reduction in thioflavin-T enhanced fluorescence
- effect on precipitable amyloid formation (human amylin [3]): no effects on amyloid formation

Compound: CN(C)CCCN1c2ccccc2Sc2ccc(Cl)cc21 [chlorpromazine]
- inhibition of amylin fibril formation (human amylin [2]; 700 μM chlorpromazine, 70 μM human amylin, over 24 hours (FIG. 2)): approximately 60%
- enhancement of thioflavin-T fluorescence by human amylin (human amylin [2]): little inhibition of amylin fibril associated thioflavin-T fluorescence enhancement
- morphology of human amylin fibrils (electron microscopy) (human amylin [4]; 1200 μM compound, 60 μM human amylin, 10 mM tris pH 7.4, 24 h (FIG. 6)): still formed characteristic amylin fibrils
- effect on precipitable amyloid formation (human amylin [3]): no effects on amyloid formation

Compound: CN(C)c1ccc2nc3ccc(N(C)C)cc3[s+]c2c1 [methylene blue]
- enhancement of thioflavin-T fluorescence by human amylin (human amylin [2]): no increase in thioflavin-T enhanced fluorescence
- enhancement of thioflavin-T fluorescence by human amylin (human amylin [2]; listed as Methylene blue): complete inhibition
- effect on precipitable amyloid formation (human amylin [3]): no effects on amyloid formation
- effect on precipitable amyloid formation (human amylin [3]; listed as Methylene blue): no effect

Compound: CCN(CC)CCCC(C)Nc1c2ccc(Cl)cc2nc2ccc(OC)cc12 (stereo not shown) [quinacrine]
- rate of human amylin fibril formation (electron microscopy) (human amylin [4]; 7000 μM quinacrine, 70 μM human amylin, 1.5, 5 and 26 hours): appears to slow the rate of human amylin fibril formation
- morphology of human amylin fibrils (electron microscopy) (human amylin [4]; 7000 μM quinacrine, 70 μM human amylin, 5 hours and 26 hours): large aggregates with few defined fibrils

Compound: Cc1ccc2c(c1)sc(-c1ccc(N(C)C)cc1)[n+]2C.[Cl-] [thioflavin-T]
- effect on precipitable amyloid formation (human amylin [3]): no effects on amyloid formation

Compound: human amylin
- cytotoxicity of amylin peptide to RINm5F cells (RINm5F cells): significant increase in cell death

Compound: rat amylin: synthetic rat amylin from Bachem; non-fibril forming control
- cytotoxicity of amylin peptide to RINm5F cells (RINm5F cells): not cytotoxic
